According to patent US10314834B2, “Therapeutic agent or treatment method for Philadelphia chromosome-positive (Ph+) acute lymphocytic leukemia (ALL) having IKZF1 mutation” (UNIVERSITY OF YAMANASHI, priority 2015, dated 2019):

How the values were obtained:
[1] = tested on: Ph+ALL strain KOPN57bi; assay: H^3-thymidine uptake method, Ph+ALL strain KOPN57bi; type: cell-based; conditions: Homo sapiens, 144 h, read-out: % inhibition of H^3-thymidine uptake
Description: Effect in the combination was recognized from 2 days in the culture, and % inhibition reached to 90% or more on 3 days in the culture.

[2] = tested on: Ph+ALL cell strain (KOPN57bi); assay: Viable cells by alamar blue method; type: cell-based, human; conditions: LMD 20 μM, IM 0.5 μM, 3 days
[3] = tested on: Ph+ALL cell strain (KOPN57bi); assay: Cell death by Annexin V/propidium iodide (PI) double staining, flow cytometry; conditions: Homo sapiens, 72 h, read-out: viable cell fraction (Annexin V-, PI-)
Description: At an early stage of cell death, specific phospholipids are exposed on the cell membrane. By labeling Annexin V, which strongly binds to the phospholipid, with a fluorescent dye, rate of the early cell death can be detected by using flow cytometry. On the other hand, at a late stage of cell death, cell membrane/nuclear membrane is partially destroyed.

[4] = tested on: Ph+ALL cell strain (KOPN57bi); assay: Cell turnover by PI staining, flow cytometry; type: cell-based, human; conditions: LMD 20 μM, IM 0.5 μM, 3 days
Method: When PI staining is performed under the condition that the cell membrane/nuclear membrane is fixed with a drug and PI can freely bind to intranuclear DNA, staining intensity changes depending on amount of DNA. Thus, cell turnover stop phase (G0/G1 phase, 2N), DNA synthesis phase (S phase, 2N→4N), pre-cell division phase (G2 phase, 4N) and cell division phase (M phase, 4N→2N) can be distinguished each other by using flow cytometry. In addition, when the cell death is induced by apoptosis, a cell fraction that DNA amount decreases by DNA cleavage (less than 2N) from the G0/G1 phase is detected.

[5] = tested on: Ph+ALL cell strain (KOPN57bi); assay: Apoptosis by active caspase-3 antibody, flow cytometry; type: cell-based, human; conditions: LMD 20 μM, IM 0.5 μM, 3 days, compared with no addition
Description: After fixation of cell membrane, the cells were stained with anti-active caspase-3 antibodies and positive cells were investigated by using flow cytometry.

[6] = tested on: Ph+ALL cell strain (KOPN57bi); assay: Immunodeficient mice transplanted with Ph+ALL cells, in vivo; set-up: species or system NOD/SCID/γ null mouse (NOG mouse); conditions: NOG mouse; LMD 30 mg/kg/day, IM 150 mg/kg/day, PO; two weeks after administration; saline approximately 30%
Description: NOD/SCID/γ null mouse (NOG mouse) is widely used for research as immunodeficient mouse capable of efficiently transplanting human hematopoietic stem cells or tumor cells. A mouse transplanted with human leukemia cells is a system that can study therapeutic effect of a drug on human leukemia cells in the mouse body (in vivo). […] The mice were observed over time. Proportion of Ph+ALL cells in mononuclear cell fraction was investigated by using flow cytometry after isolating mononuclear cell fraction from mouse bone marrow blood two weeks after administration and staining with anti-human CD45 antibody binding to human leukemia cells.

[7] = tested on: IKZF1 protein; assay: Change of IKZF1 expression by western blotting; type: cell-based, human; conditions: KOPN57bi; LMD 20 μM, IM 0.5 nM; 24 hours

Compound	inhibition at 20 µM [1] [%]	number of viable cells (alamar blue) [2]	viability at 20 µM [3] [%]	S phase fraction [4]	apoptotic fraction (less than 2N) [4]	active caspase-3 positive rate [5]	proportion of Ph+ALL cells (human CD45 positive) in bone marrow mononuclear cell fraction [6] [%]	expression of dominant-negative isoform (Ik 6) [7]
Nc1cccc2c1CN(C1CCC(=O)NC1=O)C2=O (racemic) [LMD, (RS)-3-(4-amino-1-oxo-3H-isoindol-2-yl) piperidine-2,6-dione]	~80	mildly decreased	~60	decrease	mild increase	slightly increased	2.1	–
Cc1ccc(NC(=O)c2ccc(CN3CCN(C)CC3)cc2)cc1Nc1nccc(-c2cccnc2)n1 [IM, 4-(4-Methylpiperazin-1-ylmethyl)-N-[4-methyl-3-(4-pyridin-3-ylpyrimidin-2-ylamino)benzamide monomethanesulfonate]	–	mildly decreased	–	–	–	slightly increased	–	No change
